Values of other authors as cited in article PMC5988656, “Phase I studies of AZD1208, a proviral integration Moloney virus kinase inhibitor in solid and haematological cancers” (British Journal of Cancer, 2018).

Tests used:
[1] = system: relapsed/refractory multiple myeloma (RRMM); details: in vivo; cited from earlier work
[2] = system: refractory prostate cancer and relapsed/refractory non-Hodgkin lymphoma; set-up: method as in ClinicalTrials.gov, NCT00848601; details: ref ClinicalTrials.gov, NCT00848601; cited from earlier work

Structure (SMILES) | DLT fatigue [1] [n] | DLT hypophosphatemia [1] [n] | DLT thrombocytopenia [1] [n] | DLT vasovagal syncope [1] [n] | DLTs [1] | Outcome of clinical development [2]
C[C@@H]1C[C@H](N)C[C@H](c2ccncc2NC(=O)c2ccc(F)c(-c3c(F)cccc3F)n2)C1 [LGH447] | 2 | 1 | 4 | 1 | eight | –
CN1CCC(CNc2ccc3ncc(-c4cccc(OC(F)(F)F)c4)n3n2)CC1 [SGI-1776] | – | – | – | – | – | discontinued because of QTc prolongation
